The target in one assay is Jarid1B (Homo sapiens (Human), UniProt Q9UGL1). The experiment in a line: In vitro enzyme inhibition assay for Jarid1B activity (TR-FRET). The format is biochemical. The note with it: Table 5; one class given per A and B pair. As for the experimental part: The ability of test compounds to inhibit the activity of Jarid1B was determined in 384-well plate format under the following reaction conditions: 0.8 nM Jarid1B, 300 nM H3K4me3-biotin labeled peptide (Anaspec cat #64357), 2 μM alpha-ketoglutaric acid in assay buffer of 50 mM HEPES, pH7.3, 0.005% Brij35, 0.5 mM TCEP, 0.2 mg/ml BSA, 50 μM sodium L-ascorbate, and 2 μM ammonium iron(II) sulfate. Reaction product was determined quantitatively by TR-FRET after the addition of detection reagent Phycolink Streptavidin-allophycocyanin (Prozyme) and Europium-anti-H3K4me or -H3K4me2 antibody (PerkinElmer) in the presence of 5 mM EDTA in LANCE detection buffer (PerkinElmer) at a final concentration of 25 nM and 1 nM, respectively.
(§1) The assay reaction was initiated by the following: 2 μl of the mixture of 900 nM H3K4me3-biotin labeled peptide and 6 μM alpha-ketoglutaric acid with 2 μl of 11-point serial diluted inhibitor in 3% DMSO was added to each well of the plate, followed by the addition of 2 μl of 2.4 nM Jarid1B to initiate the reaction. The reaction mixture was incubated at RT for 30 min, and terminated by the addition of 6 μl of 5 mM EDTA in LANCE detection buffer containing 50 nM Phycolink Streptavidin-allophycocyanin and 2 nM Europium-anti-H3K4me/H3K4me2 antibody. Plates were read by EnVisionMultilabel Reader in TR-FRET mode (excitation at 320 nm, emission at 615 nm and 665 nm) after 1 hr incubation at RT. A ratio was calculated (665/615) for each well and fitted to determine inhibition constant (IC50).
On the technique in general: Time-resolved FRET reads energy transfer from a long-lived donor to a nearby acceptor.

In assay [1] the test system is esophageal squamous cell carcinoma KYSE-150 cells. The experiment in a line: Cellular IC50 in KYSE-150 cells. The note with it: Homo sapiens, one class given per A and B pair. The format is cell-based. An excerpt: Table 7 provides IC50 values of various compounds disclosed herein, tested in cellular human esophageal squamous cell carcinoma KYSE-150 cells: […]
The next assay deals with JMJD3 (Homo sapiens, UniProt O15054). The experiment in a line: In vitro enzyme inhibition assay for JMJD3 activity (TR-FRET). The format is biochemical. The note with it: Table 5; one class given per A and B pair. As to the method: This assay determines the ability of a test compound to inhibit JMJD3 demethylase activity. Baculovirus expressed JMJD3 (GenBank Accession #NM-001080424, AA1043-end) was purchased from BPS Bioscience (Cat#50115).
The enzymatic assay of JMJD3 activity is based upon Time Resolved-Fluorescence Resonance Energy Transfer (TR-FRET) detection. The ability of test compounds to inhibit the activity of JMJD3 was determined in 384-well plate format under the following reaction conditions: 5 nM JMJD3, 250 nM H3K27me3-biotin labeled peptide (Anaspec cat #64367), 0.4 to 2 μM α-ketoglutaric acid in assay buffer of 50 mM HEPES, pH7.3, 0.005% Brij35, 0.5 mM TCEP, 0.2 mg/ml BSA, 50 μM sodium L-ascorbate, and 5 μM ammonium iron(II) sulfate. Reaction product was determined quantitatively by TR-FRET after the addition of detection reagent Phycolink Streptavidin-allophycocyanin (Prozyme) and Europium-anti-H3K27me2 antibody (PerkinElmer) in the presence of 5 mM EDTA in LANCE detection buffer (PerkinElmer) at a final concentration of 50 nM and 1 nM, respectively.
The assay reaction was initiated by the following: […] of the mixture of 750 nM H3K27me3-biotin labeled peptide and 1.2 to 6 μM alpha-ketoglutaric acid with 2 μL of 11-point serial diluted inhibitor in 3% DMSO were added to each well of plate, followed by the addition of 2 μl of 15 nM JMJD3 to initiate the reaction. The reaction mixture was incubated at RT for 30 min, and terminated by the addition of 6 μL of 5 mM EDTA in LANCE detection buffer containing 100 nM Phycolink Streptavidin-allophycocyanin and 2 nM Europium-anti-H3K27me2 antibody. Plates were read by EnVisionMultilabel Reader in TR-FRET mode (excitation at 320 nm, emission at 615 nm and 665 nm) after 1 hr incubation at RT. A ratio from the readout of 665/615 was calculated for each well and fitted to determine inhibition constant (IC50).

The target in the next assay is JMJD2C (Homo sapiens (Human), UniProt Q9H3R0). The experiment in a line: In vitro enzyme inhibition assay for JMJD2C activity (TR-FRET). It counts as biochemical. To be noted: Table 5; one class given per A and B pair. As to the method:
This assay determines the ability of a test compound to inhibit JMJD2C demethylase activity. Baculovirus expressed JMJD2C (GenBank Accession #BC143571, AA 2-372) was purchased from BPS Bioscience (Cat#50105).
The ability of test compounds to inhibit the activity of JMJD2C was determined in 384-well plate format under the following reaction conditions: 0.3 nM JMJD2C, 300 nM H3K9me3-biotin labeled peptide (Anaspec cat #64360), 2 μM alpha-ketoglutaric acid in assay buffer of 50 mM HEPES, pH7.3, 0.005% Brij35, 0.5 mM TCEP, 0.2 mg/ml BSA, 50 μM sodium L-ascorbate, and 2 μM ammonium iron(II) sulfate. Reaction product was determined quantitatively by TR-FRET after the addition of detection reagent Phycolink Streptavidin-allophycocyanin (Prozyme) and Europium-anti-di-methylated histone H3 lysine 9 (H3K9me2) antibody (PerkinElmer) in the presence of 5 mM EDTA in LANCE detection buffer (PerkinElmer) at a final concentration of 50 nM and 1 nM, respectively.
as §1, with “nM H3K9me3-biotin” for “nM H3K4me3-biotin”, “DMSO were” for “DMSO was”, “of 0.9” for “of 2.4”, “nM JMJD2C” for “nM Jarid1B”, “containing 100” for “containing 50”, “nM Europium-anti-H3K9me2” for “nM Europium-anti-H3K4me/H3K4me2”

SMILES strings stand for the structures. Bounds are passed on as bounds.

Sequence of JMJD2C (Q9H3R0 2-372): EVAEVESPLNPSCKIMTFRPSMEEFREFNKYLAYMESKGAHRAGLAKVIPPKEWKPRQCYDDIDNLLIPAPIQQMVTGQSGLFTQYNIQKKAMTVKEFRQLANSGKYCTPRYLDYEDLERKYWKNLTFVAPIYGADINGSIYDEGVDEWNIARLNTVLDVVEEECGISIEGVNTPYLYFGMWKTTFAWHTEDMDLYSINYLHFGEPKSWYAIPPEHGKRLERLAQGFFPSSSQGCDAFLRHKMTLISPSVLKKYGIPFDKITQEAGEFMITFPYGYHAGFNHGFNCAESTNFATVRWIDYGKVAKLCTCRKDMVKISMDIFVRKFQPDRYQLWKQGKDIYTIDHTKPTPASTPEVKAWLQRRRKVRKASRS
Sequence of Jarid1B (Q9UGL1 whole entry, species assumed): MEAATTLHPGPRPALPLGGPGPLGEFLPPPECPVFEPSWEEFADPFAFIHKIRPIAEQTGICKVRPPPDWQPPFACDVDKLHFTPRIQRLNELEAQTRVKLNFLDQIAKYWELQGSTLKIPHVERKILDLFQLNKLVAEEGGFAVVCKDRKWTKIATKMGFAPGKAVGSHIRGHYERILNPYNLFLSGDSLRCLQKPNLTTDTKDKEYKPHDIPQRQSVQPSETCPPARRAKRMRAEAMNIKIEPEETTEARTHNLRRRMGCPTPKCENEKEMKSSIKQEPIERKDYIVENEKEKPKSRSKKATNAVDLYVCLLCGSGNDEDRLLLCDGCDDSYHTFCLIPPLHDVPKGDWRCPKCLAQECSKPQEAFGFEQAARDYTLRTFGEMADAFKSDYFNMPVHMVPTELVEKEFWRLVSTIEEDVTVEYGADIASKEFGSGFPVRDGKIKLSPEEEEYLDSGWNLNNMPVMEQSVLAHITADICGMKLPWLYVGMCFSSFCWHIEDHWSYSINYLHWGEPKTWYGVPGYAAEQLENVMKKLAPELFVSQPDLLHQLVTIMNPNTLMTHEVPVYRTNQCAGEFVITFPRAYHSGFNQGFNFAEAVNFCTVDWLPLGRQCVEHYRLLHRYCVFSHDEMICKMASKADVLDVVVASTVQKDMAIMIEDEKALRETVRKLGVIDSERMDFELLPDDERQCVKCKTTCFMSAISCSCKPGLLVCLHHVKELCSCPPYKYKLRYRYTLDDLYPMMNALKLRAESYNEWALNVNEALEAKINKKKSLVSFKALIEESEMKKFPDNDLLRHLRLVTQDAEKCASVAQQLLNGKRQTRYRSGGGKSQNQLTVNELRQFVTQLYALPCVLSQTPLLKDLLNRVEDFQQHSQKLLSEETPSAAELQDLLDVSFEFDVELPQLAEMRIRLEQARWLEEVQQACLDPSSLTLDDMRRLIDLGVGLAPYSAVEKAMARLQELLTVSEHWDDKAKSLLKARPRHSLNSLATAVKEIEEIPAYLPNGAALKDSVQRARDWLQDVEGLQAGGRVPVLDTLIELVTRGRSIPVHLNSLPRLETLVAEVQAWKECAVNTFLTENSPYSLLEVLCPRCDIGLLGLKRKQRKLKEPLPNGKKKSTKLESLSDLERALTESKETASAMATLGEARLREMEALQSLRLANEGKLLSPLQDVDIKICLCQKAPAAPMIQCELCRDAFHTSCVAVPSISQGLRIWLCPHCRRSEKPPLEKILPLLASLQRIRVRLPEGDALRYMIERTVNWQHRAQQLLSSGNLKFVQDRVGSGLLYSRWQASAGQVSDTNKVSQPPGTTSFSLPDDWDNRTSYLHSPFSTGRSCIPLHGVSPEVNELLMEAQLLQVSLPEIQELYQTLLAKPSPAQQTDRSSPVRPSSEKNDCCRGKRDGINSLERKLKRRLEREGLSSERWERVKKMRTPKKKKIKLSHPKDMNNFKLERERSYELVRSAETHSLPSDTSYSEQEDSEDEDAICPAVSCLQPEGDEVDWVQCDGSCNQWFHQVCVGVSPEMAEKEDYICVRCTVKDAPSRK

Take `Cc1ccc(N(C)c2ccc3c(c2)CCN(C)[C@@H]3CNc2cnccc2C(=O)O)cc1` [Example 11B, (S)-3-(((2-methyl-6-(methyl(p-tolyl)amino)-1,2,3,4-tetrahydroisoquinolin-1-yl)methyl)amino)isonicotinic acid]: the IC50 (usually the concentration that inhibits the measured activity by half) on Jarid1B is not above 100 nM; in assay [1] it was not above 100 nM; against JMJD3, 1000 to 10000 nM; against JMJD2C, 100 to 1000 nM.
`Cc1ccccc1-c1ccc2c(c1)CCN(C)[C@H]2CNc1cnccc1C(=O)O` [Example 12A, (R)-3-(((2-methyl-6-(o-tolyl)-1,2,3,4-tetrahydroisoquinolin-1-yl)methyl)amino)isonicotinic acid]: the IC50 is not above 100 nM against Jarid1B, not above 100 nM in assay [1], 1000 to 10000 nM against JMJD3 and 1000 to 10000 nM against JMJD2C.
`Cc1ccccc1-c1ccc2c(c1)CCN(C)[C@@H]2CNc1cnccc1C(=O)O` [Example 12B, (S)-3-(((2-methyl-6-(o-tolyl)-1,2,3,4-tetrahydroisoquinolin-1-yl)methyl)amino)isonicotinic acid]: the IC50 was not above 100 nM on Jarid1B, not above 100 nM in assay [1], 1000 to 10000 nM on JMJD3 and 1000 to 10000 nM against JMJD2C.
For `CCc1ccc(N(C)c2ccc3c(c2)CCN(C)[C@H]3CNc2cnccc2C(=O)O)cc1` [Example 13A, (R)-3-(((6-((4-ethylphenyl)(methyl)amino)-2-methyl-1,2,3,4-tetrahydro-isoquinolin-1-yl)methyl)amino)isonicotinic acid], the IC50 at Jarid1B was not above 100 nM; in assay [1] it was not above 100 nM; on JMJD3, 1000 to 10000 nM; against JMJD2C, 100 to 1000 nM.
As to `CCc1ccc(N(C)c2ccc3c(c2)CCN(C)[C@@H]3CNc2cnccc2C(=O)O)cc1` [Example 13B, (S)-3-(((6-((4-ethylphenyl)(methyl)amino)-2-methyl-1,2,3,4-tetrahydro-isoquinolin-1-yl)methyl)amino)isonicotinic acid], the IC50 against Jarid1B was not above 100 nM; in assay [1], not above 100 nM; against JMJD3, 1000 to 10000 nM; at JMJD2C it was 100 to 1000 nM.
Take `CCCc1ccc(N(C)c2ccc3c(c2)CCN(C)[C@H]3CNc2cnccc2C(=O)O)cc1` [Example 14A, (R)-3-(((2-methyl-6-(methyl (4-propylphenyl)amino)-1,2,3,4-tetrahydroisoquinolin-1-yl)methyl)amino)isonicotinic acid]: the IC50 against Jarid1B was not above 100 nM; in assay [1], not above 100 nM; at JMJD3 it was 1000 to 10000 nM; against JMJD2C it was 1000 to 10000 nM.
With `CCCc1ccc(N(C)c2ccc3c(c2)CCN(C)[C@@H]3CNc2cnccc2C(=O)O)cc1` [Example 14B, (S)-3-(((2-methyl-6-(methyl (4-propylphenyl)amino)-1,2,3,4-tetrahydroisoquinolin-1-yl)methyl)amino)isonicotinic acid], the IC50 was not above 100 nM against Jarid1B, not above 100 nM in assay [1], 1000 to 10000 nM against JMJD3 and 1000 to 10000 nM against JMJD2C.
Consider `Cc1ccc(N(C)c2ccc3c(c2)CN(C)[C@H]3CNc2cnccc2C(=O)O)cc1` [Example 18A, (R)-3-(((2-methyl-5-(methyl(p-tolyl)amino)isoindolin-1-yl)methyl)amino) isonicotinic acid], for which the IC50 is not above 100 nM against Jarid1B, not above 100 nM in assay [1], 1000 to 10000 nM on JMJD3 and 100 to 1000 nM against JMJD2C.
With `Cc1ccc(N(C)c2ccc3c(c2)CN(C)[C@@H]3CNc2cnccc2C(=O)O)cc1` [Example 18B, (S)-3-(((2-methyl-5-(methyl(p-tolyl)amino)isoindolin-1-yl)methyl)amino) isonicotinic acid], the IC50 is not above 100 nM at Jarid1B, not above 100 nM in assay [1], 1000 to 10000 nM against JMJD3 and 100 to 1000 nM against JMJD2C.
As for `CCc1ccc(N(C)c2ccc3c(c2)CN(C)[C@H]3CNc2cnccc2C(=O)O)cc1` [Example 19A, (R)-3-(((5-((4-ethylphenyl)(methyl)amino)-2-methylisoindolin-1-yl)methyl)amino)isonicotinic acid], the IC50 is not above 100 nM at Jarid1B, not above 100 nM in assay [1], 1000 to 10000 nM against JMJD3 and 100 to 1000 nM at JMJD2C.
As to `CCc1ccc(N(C)c2ccc3c(c2)CN(C)[C@@H]3CNc2cnccc2C(=O)O)cc1` [Example 19B, (S)-3-(((5-((4-ethylphenyl)(methyl)amino)-2-methylisoindolin-1-yl)methyl)amino)isonicotinic acid], the IC50 against Jarid1B was not above 100 nM; in assay [1], not above 100 nM; on JMJD3 it was 1000 to 10000 nM; against JMJD2C, 100 to 1000 nM.
As for `CCCc1ccc(N(C)c2ccc3c(c2)CN(C)[C@H]3CNc2cnccc2C(=O)O)cc1` [Example 20A, (R)-3-(((2-methyl-5-(methyl (4-propylphenyl)amino)isoindolin-1-yl)methyl)amino)isonicotinic acid], the IC50 on Jarid1B is not above 100 nM; in assay [1], not above 100 nM; at JMJD3 it was 1000 to 10000 nM; against JMJD2C, 100 to 1000 nM.
As to `CCCc1ccc(N(C)c2ccc3c(c2)CN(C)[C@@H]3CNc2cnccc2C(=O)O)cc1` [Example 20B, (S)-3-(((2-methyl-5-(methyl (4-propylphenyl)amino)isoindolin-1-yl)methyl)amino)isonicotinic acid], the half-maximal inhibitory concentration (IC50) against Jarid1B was not above 100 nM; in assay [1], not above 100 nM; against JMJD3, 1000 to 10000 nM; at JMJD2C, 100 to 1000 nM.
With `Cc1ccccc1-c1ccc2c(c1)CN(C)[C@H]2CNc1cnccc1C(=O)O` [Example 21A, (R)-3-(((2-methyl-5-(o-tolyl)isoindolin-1-yl)methyl)amino)isonicotinic acid], the IC50 against Jarid1B was not above 100 nM; in assay [1], not above 100 nM; against JMJD3, 1000 to 10000 nM; against JMJD2C, 100 to 1000 nM.
On to `Cc1ccccc1-c1ccc2c(c1)CN(C)[C@@H]2CNc1cnccc1C(=O)O` [Example 21B, (S)-3-(((2-methyl-5-(o-tolyl)isoindolin-1-yl)methyl)amino)isonicotinic acid], for which the IC50 at Jarid1B was not above 100 nM; in assay [1] it was not above 100 nM; on JMJD3, 1000 to 10000 nM; against JMJD2C, 100 to 1000 nM.

These data come from US10059687B2, “Histone demethylase inhibitors” (CELGENE QUANTICEL RESEARCH, INC., priority 2015, dated 2018).
